Assay results published in patent US20090298708A1, “2'-DEOXY-2'-FLUORO-BETA-D-ARABINONUCLEOSIDE 5'-TRIPHOSPHATES AND THEIR USE IN ENZYMATIC NUCLEIC ACID SYNTHESIS” (priority 2006, published 2009).

Key:
[1] = biological target: T1, 9N DNA polymerase (Thermococcus sp., UniProt Q56366, E143D); assay: Dropout assay, fidelity of incorporation by 9N; format: biochemical, Thermococcus species (strain 9° N-7); settings: 30 min reaction time, 25 μM triphosphates, 55° C., template A: PF41, G: PF43, T: PF21, C: PF23
T1 construct: purchased New England Biolabs; host or cells: E. coli
Experimental: (§1) FIG. 11A illustrates the fidelity of 2′F-araATP incorporation on a DNA template PF41 by DV and 9N DNA polymerases. Reaction conditions: 0.8 unit DV and 9N, 25 μM triphosphates at 55° C. in 30 μL reaction volume; incubation time: 30 min. Group 1 & 5: dNTPs; 2 & 6: dropout of dATP; 3 & 7: 2′F-araNTPs, 4 & 8: dropout of 2′F-araATP; 27mer control DNA is PF39.
(§2) FIG. 11B illustrates the fidelity of 2′F-araGTP incorporation on DNA template PF43 by DV and 9N DNA polymerases. Reaction conditions: primer/template (1:1 molar ratio): 100 nM; 0.4 μL (0.8 unit) DV, 9N, 25 μM triphosphate concentration at 55° C. in 30 μL reaction volume. Reaction time for dNTPs (group 1, 5) was 30 min and others were shown above. Group 1 & 5: dNTPs; 2 & 6: drop out dGTP (i.e. dTTP, dCTP and dATP), 3 & 7: 2TF-araNTPs, 4 & 8: drop out 2′F-araGTP; lane P is the template PF41 as the full-length product control; PF39 is a 27-nt DNA control. All samples were analyzed by 12% denaturing PAGE.
(§3) FIG. 12A illustrates the fidelity of 2′F-araTTP incorporation by DV and 9N DNA polymerases on a DNA template PF21. Reaction conditions: 100 nM primer/template (1:1 molar ratio); 0.4 μL (0.8 unit) DV or 9N, 25 μM triphosphate concentration at 55° C. in 30 μL reaction volume. Reaction time for dNTPs (group 1, 5) was 30 min and others were shown above. Groups 1 & 5: dNTPs; 2 & 6: drop out dTTP; 3 & 7: 2′F-araNTPs; 4 & 8: drop out 2′F-araTTPs. in B: group 1 & 5: dNTPs; 2 & 6: drop out dCTP; 3 & 7: 2′F-araNTPs; 4 & 8: drop out 2′F-araCTPs; PF39 is a 27-nt DNA control. All samples were analyzed by 12% denaturing PAGE.
as §3, with “12B” for “12A”, “fidelity study” for “fidelity”, “2′F-araCTP” for “2′F-araTTP”, “PF23.” for “PF21.”, “(groups” for “(group”, “Groups” for “Groups 1 & 5: dNTPs; 2 & 6: drop out dTTP; 3 & 7: 2′F-araNTPs; 4 & 8: drop out 2′F-araTTPs. in B: group”
(§4) “Dropout assays” (Ichida et al. (2005) J. Am. Chem. Soc. 127:2802-2803) were conducted to assess the fidelity of 2′F-araNTP incorporation (each of 2′F-araATP, 2′F-araCTP, 2′F-araGTP and 2′F-araTTP) by various DNA polymerases (FIGS. 11-14). For example, the 2′F-araNTP of interest is removed from the pool, and the ensuing synthesis on DNA template (e.g. PF21, PF23, PF41, PF43) assessed in comparison with a control reaction containing all four 2′F-araNTPs. For comparison, dropout experiments containing dNTPs are run in parallel. Full-length DNA and FANA products are obtained when all four dNTPs (group 1 and 5) and 2′F-araNTPs (groups 3 and 7) were available, however, some pausing may occur during synthesis of the arabinose modified oligomers. Apparent fidelity was calculated according to the equation:
(§5) 1−[(% full-length−2′F-araNTP)/(% full-length+2′F-araNTP)]
(§6) at 30 min reaction time (sample equation for dNTP values). >99% means that the full-length product was not detectable in our dropout assays.
(§7) “Dropout assays” (Ichida et al. (2005) J. Am. Chem. Soc. 127:2802-2803) were conducted to assess apparent fidelity of 2′F-araNTP incorporation by DV and 9N. In one of these assays, 2′F-araATP was removed from the pool, and the ensuing synthesis assessed in comparison with a control reaction containing all four 2′F-araNTPs. For comparison, dropout experiments containing dNTPs were run in parallel (FIGS. 11-14). Full-length DNA and FANA products were obtained when all four dNTPs (group 1 and 5) and 2′F-araNTPs (groups 3 and 7) were available, although some pausing was evident during synthesis of the arabinose modified oligomers.

[2] = biological target: T2, DV DNA polymerase (Pyrococcus sp., UniProt Q51334, D141A/DEL493-1029/E143A); assay: Dropout assay, fidelity of incorporation by DV; format: biochemical, Pyrococcus species GB-D; settings: 30 min reaction time, 25 μM triphosphates, 55° C., template A: PF41, G: PF43, T: PF21, C: PF23
T2 construct: purchased New England Biolabs; host or cells: E. coli
Experimental: as §1, §2, §3
as §3, with “12B” for “12A”, “fidelity study” for “fidelity”, “2′F-araCTP” for “2′F-araTTP”, “PF23.” for “PF21.”, “(groups” for “(group”, “Groups” for “Groups 1 & 5: dNTPs; 2 & 6: drop out dTTP; 3 & 7: 2′F-araNTPs; 4 & 8: drop out 2′F-araTTPs. in B: group”
as §4, §5, §6, §7

Row | Compound | % Apparent Fidelity, dNTP [1] [%] | % Apparent Fidelity, dNTP [2] [%] | % Apparent Fidelity, 2′F-araNTP [1] | % Apparent Fidelity, 2′F-araNTP [2]
1 | Cc1cn([C@H]2C[C@H](O)[C@@H](COP(=O)(O)OP(=O)(O)OP(=O)(O)O)O2)c(=O)[nH]c1=O [dTTP, reference compound] | 32 | 19 | – | –
2 | Cc1cn([C@@H]2O[C@H](COP(=O)(O)OP(=O)(O)OP(=O)(O)O)[C@@H](O)[C@@H]2F)c(=O)[nH]c1=O [2′F-araTTP, 1-(2-deoxy-2-fluoro-β-D-arabino-furanosyl)thymine 5′-triphosphate] | – | – | T: 76% | T: 3%
3 | Nc1ccn([C@@H]2O[C@H](COP(=O)(O)OP(=O)(O)OP(=O)(O)O)[C@@H](O)[C@@H]2F)c(=O)n1 [2′F-araCTP, 1-(2-deoxy-2-fluoro-β-D-arabinofuranosyl)cytosine 5′-triphosphate] | – | – | C: 43% | C: 50%
4 | Nc1ccn([C@H]2C[C@H](O)[C@@H](COP(=O)(O)OP(=O)(O)OP(=O)(O)O)O2)c(=O)n1 [dCTP] | 82 | 3 | – | –
